In US20090306135A1 (priority 2008, published 2009):
Like-named read-outs stand apart in the source and are kept apart here.

Assays:
[1] = Excerpt: X-Ray tube with Cu target anode Divergence slits 1 0, Receiving slit 0.15 mm, Scatter slit 1 0 Power: 40 KV, 100 mA; Scanning speed: 2 degree/minute step: 0.02 degree; Wave length: 1.5406 A; Spray Dryer: PST01
[2] = Storage stability at 25 ± 2° C. and 60 ± 5% RH; type: physicochemical
[3] = 40 ± 2° C. and 75 ± 5% RH, 1 Month
[4] = 40 ± 2° C. and 75 ± 5% RH, 2 Month
[5] = 40 ± 2° C. and 75 ± 5% RH, 3 Month
[6] = 40 ± 2° C. and 75 ± 5% RH, Initial
[7] = 40 ± 2° C. and 75 ± 5% RH (Using BHA), 1 Month
[8] = 40 ± 2° C. and 75 ± 5% RH (Using BHA), 2 Month
[9] = 40 ± 2° C. and 75 ± 5% RH (Using BHA), Initial

Structure (SMILES): CC(C)(C(=O)O)c1ccc(C(O)CCCN2CCC(C(O)(c3ccccc3)c3ccccc3)CC2)cc1.Cl (racemic) [Example 1, (±)-4-[1 hydroxy-4-[4-(hydroxydiphenylmethyl)-1-piperidinyl]-butyl]-α,α-dimethyl benzeneacetic acid hydrochloride]
- Assay by HPLC [1, 3]: 99.4 % w/w on dried basis
- Description [1, 3]: White Powder
- Possible impurities Comp-A [1, 3]: 0.050
- Related Subs [1, 3]: 0.201 % w/w
- XRD [1, 3]: Complies
- Assay by HPLC [1, 4]: 98.7 % w/w on dried basis
- Description [1, 4]: White Powder
- Possible impurities Comp-A [1, 4]: 0.047
- Possible impurities ME-pF (Methyl ester of p-fexofenadine) [1, 4]: 0.002
- Possible impurities TRS-1 [1, 4]: 0.008
- Related Subs [1, 4]: 0.237 % w/w
- XRD [1, 4]: Complies
- Assay by HPLC [1, 5]: 99.3 % w/w on dried basis
- Description [1, 5]: White Powder
- Possible impurities Comp-A [1, 5]: 0.053
- Related Subs [1, 5]: 0.203 % w/w
- XRD [1, 5]: Complies
- Assay by HPLC [1, 6]: 99.0 % w/w on dried basis
- Description [1, 6]: White Powder
- Possible impurities Comp-A [1, 6]: 0.049
- Related Subs [1, 6]: 0.188 % w/w
- XRD [1, 6]: Complies
- Assay by HPLC ([2]; 3 Month): 99.4 % w/w on dried basis
- Description ([2]; 3 Month): White Powder
- Possible impurities Comp-A ([2]; 3 Month): 0.050
- Related Subs ([2]; 3 Month): 0.213 % w/w
- XRD ([2]; 3 Month): Complies
- Assay by HPLC ([2]; 6 Month): 98.8 % w/w on dried basis
- Description ([2]; 6 Month): White Powder
- Possible impurities Comp-A ([2]; 6 Month): 0.040
- Related Subs ([2]; 6 Month): 0.186 % w/w
- XRD ([2]; 6 Month): Complies
- Assay by HPLC ([2]; 9 Month): 100.2 % w/w on dried basis
- Description ([2]; 9 Month): White Powder
- Possible impurities Comp-A ([2]; 9 Month): 0.039
- Related Subs ([2]; 9 Month): 0.171 % w/w
- XRD ([2]; 9 Month): Complies
- Assay by HPLC ([2]; Initial): 99.0 % w/w on dried basis
- Description ([2]; Initial): White Powder
- Possible impurities Comp-A ([2]; Initial): 0.049
- Related Subs ([2]; Initial): 0.188 % w/w
- XRD ([2]; Initial): Complies

Structure (SMILES): CC(C)(C(=O)O)c1ccc(C(O)CCCN2CCC(C(O)(c3ccccc3)c3ccccc3)CC2)cc1.Cl (racemic) [Example 2, (±)-4-[1 hydroxy-4-[4-(hydroxydiphenylmethyl)-1-piperidinyl]-butyl]-α,α-dimethyl benzeneacetic acid hydrochloride]
- Assay by HPLC [1, 7]: 99.6 % w/w on dried basis
- Description [1, 7]: White powder
- Possible impurities Comp-A [1, 7]: 0.069
- Possible impurities ME-mF (Methyl ester of m-fexofenadine) [1, 7]: 0.023
- Possible impurities TRS-1 [1, 7]: 0.008
- Related Subs [1, 7]: 0.227 % w/w
- XRD [1, 7]: Complies
- Assay by HPLC [1, 8]: 99.3 % w/w on dried basis
- Description [1, 8]: White powder
- Possible impurities Comp-A [1, 8]: 0.067
- Possible impurities ME-mF (Methyl ester of m-fexofenadine) [1, 8]: 0.019
- Possible impurities TRS-1 [1, 8]: 0.009
- Related Subs [1, 8]: 0.218 % w/w
- XRD [1, 8]: Complies
- Assay by HPLC [1, 9]: 99.3 % w/w on dried basis
- Description [1, 9]: White powder
- Possible impurities Comp-A [1, 9]: 0.071
- Possible impurities ME-mF (Methyl ester of m-fexofenadine) [1, 9]: 0.023
- Related Subs [1, 9]: 0.219 % w/w
- XRD [1, 9]: Complies

Structure (SMILES): CC(C)(C(=O)O)c1ccc(C(O)CCCN2CCC(C(O)(c3ccccc3)c3ccccc3)CC2)cc1.Cl (racemic) [amorphous fexofenadine hydrochloride, (±)-4-[1 hydroxy-4-[4-(hydroxydiphenylmethyl)-1-piperidinyl]-butyl]-α,α-dimethyl benzeneacetic acid hydrochloride]
- time for which the product is stable ([1]; different storage conditions (Tables 1-3)): ≥ 3 months
